The source of these data is PMC6199744, “Development of Chemical Proteomics for the Folateome and Analysis of the Kinetoplastid Folateome” (ACS Infectious Diseases, 2018).

Holding throughout (type): binding
Test [1] deals with T1, HeLa cell extract proteins (Homo sapiens, UniProt A3KMH1).
T1 construct: endogenous in cells; host or cells: HeLa cell extract

The target of test [2] is T2, HeLa cell extract proteins (Homo sapiens, UniProt P04843).
T2 construct: endogenous in cells; host or cells: HeLa cell extract
T2 sequence (P04843 24-607): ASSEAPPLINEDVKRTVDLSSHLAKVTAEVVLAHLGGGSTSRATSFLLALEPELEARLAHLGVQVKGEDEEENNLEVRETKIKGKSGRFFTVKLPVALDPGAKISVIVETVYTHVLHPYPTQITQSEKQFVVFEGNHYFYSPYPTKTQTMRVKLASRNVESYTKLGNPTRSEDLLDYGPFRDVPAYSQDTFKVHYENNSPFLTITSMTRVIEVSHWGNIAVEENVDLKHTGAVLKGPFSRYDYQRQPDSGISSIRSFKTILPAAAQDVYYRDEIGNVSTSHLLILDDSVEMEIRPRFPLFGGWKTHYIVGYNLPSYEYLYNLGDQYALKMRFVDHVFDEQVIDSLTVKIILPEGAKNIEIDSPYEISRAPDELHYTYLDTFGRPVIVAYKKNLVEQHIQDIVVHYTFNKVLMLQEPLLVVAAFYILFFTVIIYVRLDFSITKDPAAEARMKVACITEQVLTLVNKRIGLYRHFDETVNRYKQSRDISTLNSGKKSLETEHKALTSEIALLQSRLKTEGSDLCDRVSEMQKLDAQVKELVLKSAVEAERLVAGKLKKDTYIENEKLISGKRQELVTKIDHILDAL

For test [3], the target named is T3, HeLa cell extract proteins (Homo sapiens, UniProt P40763).
T3 construct: endogenous in cells; host or cells: HeLa cell extract

For test [4], the target named is T4, HeLa cell extract proteins (Homo sapiens, UniProt P46977).
T4 construct: endogenous in cells; host or cells: HeLa cell extract
T4 sequence (P46977 1-705): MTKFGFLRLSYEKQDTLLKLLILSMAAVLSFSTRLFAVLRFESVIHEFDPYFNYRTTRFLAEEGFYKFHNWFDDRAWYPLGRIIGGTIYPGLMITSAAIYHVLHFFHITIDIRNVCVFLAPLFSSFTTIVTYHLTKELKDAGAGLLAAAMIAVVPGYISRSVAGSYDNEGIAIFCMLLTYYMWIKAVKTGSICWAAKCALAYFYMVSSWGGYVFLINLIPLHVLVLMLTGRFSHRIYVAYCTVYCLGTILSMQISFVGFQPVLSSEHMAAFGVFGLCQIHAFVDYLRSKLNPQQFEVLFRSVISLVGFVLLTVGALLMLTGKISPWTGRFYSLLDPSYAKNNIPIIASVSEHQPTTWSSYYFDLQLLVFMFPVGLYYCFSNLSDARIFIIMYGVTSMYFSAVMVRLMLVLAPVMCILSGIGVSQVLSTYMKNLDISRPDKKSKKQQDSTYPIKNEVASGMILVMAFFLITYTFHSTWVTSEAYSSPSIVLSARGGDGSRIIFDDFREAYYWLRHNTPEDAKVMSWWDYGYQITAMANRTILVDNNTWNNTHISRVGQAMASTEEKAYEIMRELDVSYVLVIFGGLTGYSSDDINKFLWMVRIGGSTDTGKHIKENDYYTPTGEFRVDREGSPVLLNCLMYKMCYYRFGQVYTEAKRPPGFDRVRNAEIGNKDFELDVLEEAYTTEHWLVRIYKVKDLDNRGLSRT

For test [5], the target named is T5, HeLa cell extract proteins (Homo sapiens, UniProt Q09161).
T5 construct: endogenous in cells; host or cells: HeLa cell extract
T5 sequence (Q09161 1-790): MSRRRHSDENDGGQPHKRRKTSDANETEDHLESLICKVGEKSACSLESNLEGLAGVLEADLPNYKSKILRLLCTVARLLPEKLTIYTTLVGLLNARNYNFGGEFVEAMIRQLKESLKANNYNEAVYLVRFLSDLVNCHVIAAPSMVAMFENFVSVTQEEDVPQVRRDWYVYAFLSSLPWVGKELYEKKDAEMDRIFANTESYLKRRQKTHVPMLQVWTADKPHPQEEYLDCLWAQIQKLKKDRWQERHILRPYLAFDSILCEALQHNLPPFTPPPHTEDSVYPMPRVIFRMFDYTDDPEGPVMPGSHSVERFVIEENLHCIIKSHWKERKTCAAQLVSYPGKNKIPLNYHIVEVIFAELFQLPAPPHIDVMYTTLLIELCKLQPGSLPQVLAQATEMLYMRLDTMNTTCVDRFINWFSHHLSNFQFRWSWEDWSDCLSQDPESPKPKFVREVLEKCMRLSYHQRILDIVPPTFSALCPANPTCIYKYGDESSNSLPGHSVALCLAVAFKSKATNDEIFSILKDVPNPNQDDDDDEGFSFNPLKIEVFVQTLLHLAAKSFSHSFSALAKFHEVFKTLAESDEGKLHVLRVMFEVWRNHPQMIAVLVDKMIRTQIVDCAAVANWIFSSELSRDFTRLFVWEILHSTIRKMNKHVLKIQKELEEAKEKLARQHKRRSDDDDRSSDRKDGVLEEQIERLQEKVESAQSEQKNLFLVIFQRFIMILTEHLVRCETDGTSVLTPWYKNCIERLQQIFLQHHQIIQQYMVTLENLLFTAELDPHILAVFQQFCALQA

Test [6] has as its target T6, HeLa cell extract proteins (Homo sapiens, UniProt Q8NF37).
T6 construct: endogenous in cells; host or cells: HeLa cell extract
T6 sequence (Q8NF37 1-534): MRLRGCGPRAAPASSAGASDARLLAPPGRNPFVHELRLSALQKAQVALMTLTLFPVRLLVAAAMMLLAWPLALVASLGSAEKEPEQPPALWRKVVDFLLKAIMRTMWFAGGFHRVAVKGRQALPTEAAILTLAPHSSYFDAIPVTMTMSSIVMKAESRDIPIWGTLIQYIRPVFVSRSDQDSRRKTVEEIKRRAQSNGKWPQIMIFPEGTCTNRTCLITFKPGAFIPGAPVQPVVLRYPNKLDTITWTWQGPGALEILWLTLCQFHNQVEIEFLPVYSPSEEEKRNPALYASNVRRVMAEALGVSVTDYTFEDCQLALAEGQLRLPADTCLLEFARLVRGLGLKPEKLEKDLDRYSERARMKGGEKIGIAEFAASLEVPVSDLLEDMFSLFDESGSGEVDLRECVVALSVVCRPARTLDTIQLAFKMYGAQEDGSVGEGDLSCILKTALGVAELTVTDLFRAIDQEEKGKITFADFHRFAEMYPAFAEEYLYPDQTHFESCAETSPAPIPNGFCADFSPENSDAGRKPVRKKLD

Read-outs that look alike come from different tables or passages of the source.

T3 sequence (P40763 whole entry): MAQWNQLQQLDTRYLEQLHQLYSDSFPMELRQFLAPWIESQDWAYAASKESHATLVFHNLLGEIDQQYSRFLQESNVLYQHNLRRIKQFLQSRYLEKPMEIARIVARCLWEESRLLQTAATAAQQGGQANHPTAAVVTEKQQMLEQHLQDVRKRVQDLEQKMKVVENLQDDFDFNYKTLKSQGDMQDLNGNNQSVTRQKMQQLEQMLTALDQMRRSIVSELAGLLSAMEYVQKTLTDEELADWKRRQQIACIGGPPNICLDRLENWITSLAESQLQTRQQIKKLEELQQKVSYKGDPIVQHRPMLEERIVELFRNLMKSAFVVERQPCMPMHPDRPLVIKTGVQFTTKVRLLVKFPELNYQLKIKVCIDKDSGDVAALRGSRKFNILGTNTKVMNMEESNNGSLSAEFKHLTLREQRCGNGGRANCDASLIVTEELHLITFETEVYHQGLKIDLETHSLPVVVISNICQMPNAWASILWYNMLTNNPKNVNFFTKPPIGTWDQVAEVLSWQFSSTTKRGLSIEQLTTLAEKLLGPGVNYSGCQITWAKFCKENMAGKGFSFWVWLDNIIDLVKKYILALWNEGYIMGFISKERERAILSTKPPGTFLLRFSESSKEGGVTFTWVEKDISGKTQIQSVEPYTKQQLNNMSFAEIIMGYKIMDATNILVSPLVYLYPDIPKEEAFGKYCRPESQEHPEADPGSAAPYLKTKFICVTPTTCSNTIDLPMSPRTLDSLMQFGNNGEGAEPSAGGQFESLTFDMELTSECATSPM
T1 sequence (A3KMH1 29-1905): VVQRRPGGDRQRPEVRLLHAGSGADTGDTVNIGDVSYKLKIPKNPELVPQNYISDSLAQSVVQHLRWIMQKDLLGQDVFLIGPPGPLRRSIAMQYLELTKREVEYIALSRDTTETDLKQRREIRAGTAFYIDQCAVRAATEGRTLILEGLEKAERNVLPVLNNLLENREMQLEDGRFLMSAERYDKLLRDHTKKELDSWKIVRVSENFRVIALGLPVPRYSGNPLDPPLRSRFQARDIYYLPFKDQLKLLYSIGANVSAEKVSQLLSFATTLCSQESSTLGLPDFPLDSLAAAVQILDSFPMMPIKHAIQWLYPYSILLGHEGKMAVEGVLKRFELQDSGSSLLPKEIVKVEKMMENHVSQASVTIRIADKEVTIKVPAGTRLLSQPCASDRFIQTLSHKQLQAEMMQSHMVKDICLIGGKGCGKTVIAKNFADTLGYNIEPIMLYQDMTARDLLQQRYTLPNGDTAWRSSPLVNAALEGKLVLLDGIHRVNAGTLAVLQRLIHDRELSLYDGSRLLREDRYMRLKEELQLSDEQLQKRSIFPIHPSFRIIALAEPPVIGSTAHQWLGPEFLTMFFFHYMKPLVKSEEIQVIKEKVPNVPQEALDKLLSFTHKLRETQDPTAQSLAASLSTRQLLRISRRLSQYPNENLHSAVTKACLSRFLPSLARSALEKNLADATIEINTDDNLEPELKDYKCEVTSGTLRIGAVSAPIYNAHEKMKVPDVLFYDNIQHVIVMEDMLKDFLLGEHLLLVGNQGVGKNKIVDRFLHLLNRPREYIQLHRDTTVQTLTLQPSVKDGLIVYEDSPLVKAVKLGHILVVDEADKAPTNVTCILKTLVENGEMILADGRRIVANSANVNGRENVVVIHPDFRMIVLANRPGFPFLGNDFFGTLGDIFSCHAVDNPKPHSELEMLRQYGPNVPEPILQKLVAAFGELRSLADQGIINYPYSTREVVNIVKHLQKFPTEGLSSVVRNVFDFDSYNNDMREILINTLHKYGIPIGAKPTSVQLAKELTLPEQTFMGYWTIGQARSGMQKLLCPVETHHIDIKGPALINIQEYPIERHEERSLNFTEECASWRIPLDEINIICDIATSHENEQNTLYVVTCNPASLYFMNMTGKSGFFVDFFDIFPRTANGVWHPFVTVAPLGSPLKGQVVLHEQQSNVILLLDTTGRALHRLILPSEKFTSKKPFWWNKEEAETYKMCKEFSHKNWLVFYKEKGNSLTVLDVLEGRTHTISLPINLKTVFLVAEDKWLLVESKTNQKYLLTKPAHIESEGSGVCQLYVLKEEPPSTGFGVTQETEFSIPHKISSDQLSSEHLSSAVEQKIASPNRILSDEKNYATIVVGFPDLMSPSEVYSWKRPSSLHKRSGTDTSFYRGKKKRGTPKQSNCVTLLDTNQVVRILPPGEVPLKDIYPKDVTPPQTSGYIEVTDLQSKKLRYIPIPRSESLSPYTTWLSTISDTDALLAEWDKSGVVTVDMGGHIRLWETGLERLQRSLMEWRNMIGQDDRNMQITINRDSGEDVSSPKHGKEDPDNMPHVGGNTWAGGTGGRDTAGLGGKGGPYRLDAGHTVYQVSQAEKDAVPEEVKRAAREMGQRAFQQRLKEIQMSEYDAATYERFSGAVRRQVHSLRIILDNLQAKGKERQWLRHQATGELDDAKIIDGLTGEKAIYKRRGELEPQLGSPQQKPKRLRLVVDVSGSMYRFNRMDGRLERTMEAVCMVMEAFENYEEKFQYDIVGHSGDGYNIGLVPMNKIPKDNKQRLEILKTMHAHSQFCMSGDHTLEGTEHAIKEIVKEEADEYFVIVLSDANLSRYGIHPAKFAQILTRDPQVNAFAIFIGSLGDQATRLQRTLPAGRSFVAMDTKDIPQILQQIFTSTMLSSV

Turning to `Nc1nc2cccc(-c3ccccc3)c2n1Cc1ccc(Cl)c(Cl)c1` [compound 3], the “fold changes relative to vehicle control” value in test [1] (protein KIAA0564, HeLa) is given as 1.1; in test [2] (protein RPN1, HeLa) it was 1.02; in test [3] (protein STAT3, HeLa), 1.15; in test [4] (HeLa, protein STT3A), 1.36; in test [5] (captured protein NCBP1, HeLa) it was 0.96; in test [6] (HeLa, protein LPCAT1), 1.11.

Turning to `NCCOCCOCC(=O)Nc1nc2ncc(CNc3ccc(C(=O)NC(CCC(=O)O)C(=O)O)cc3)nc2c(=O)[nH]1` (stereo not drawn) [compound 6], the “fold changes relative to vehicle control” value in test [1] (HeLa, protein KIAA0564) is on record as 1.1; in test [2] (HeLa, protein RPN1), 0.96; in test [3] (protein STAT3, HeLa), 0.91; in test [4] (HeLa, protein STT3A), 0.96; in test [5] (protein NCBP1, HeLa), 0.89; in test [6] (protein LPCAT1, HeLa), 0.92.

Consider `Nc1nc2[nH]cc(CCc3ccc(C(=O)N[C@@H](CCC(=O)O)C(=O)O)cc3)c2c(=O)[nH]1` [PTX, pemetrexed], for which the “fold changes relative to vehicle control” value turned out to be 0.99 in test [1]; 0.96 in test [2]; 0.73 in test [3]; 0.89 in test [4]; 0.95 in test [5]; 1 in test [6].

With `Nc1nc2c(c(=O)[nH]1)N(C=O)C(CNc1ccc(C(=O)N[C@@H](CCC(=O)O)C(=O)O)cc1)CN2` (stereo partly drawn) [LEU, leucovorin], the “fold changes relative to vehicle control” value in test [1] (HeLa, protein KIAA0564) is listed as 1; in test [2] (HeLa, protein RPN1), 0.88; in test [3] (protein STAT3, HeLa), 0.81; in test [4] (HeLa, protein STT3A), 1.1; in test [5] (protein NCBP1, HeLa), 0.81; in test [6] (protein LPCAT1, HeLa) it was 0.85.

In the case of `CCCCCCOc1ccc(Cc2cnc(N)nc2N)cc1` [compound 1], the “fold changes relative to vehicle control” value in test [1] (protein KIAA0564, HeLa) is reported as 0.99; in test [2] (protein RPN1, HeLa), 1.09; in test [3] (protein STAT3, HeLa), 0.87; in test [4] (HeLa, protein STT3A) it was 0.96; in test [5] (captured protein NCBP1, HeLa) it was 0.91; in test [6] (HeLa, protein LPCAT1), 0.93.

In the case of `NCCCNc1ccc(C(=O)NC(CCC(=O)O)C(=O)O)cc1` (stereo not drawn) [compound 7], the “fold changes relative to vehicle control” value in test [1] (HeLa, protein KIAA0564) is listed as 1.09; in test [2] (HeLa, protein RPN1), 0.94; in test [3] (protein STAT3, HeLa), 1; in test [4] (HeLa, protein STT3A), 0.93; in test [5] (protein NCBP1, HeLa), 0.93; in test [6] (protein LPCAT1, HeLa) it was 1.07.

`CCCCCCOc1cccc(Cc2cnc(N)nc2N)c1` [compound 2]: the “fold changes relative to vehicle control” value was determined as 1.11 in test [1] (protein KIAA0564, HeLa); 1.28 in test [2] (protein RPN1, HeLa); 1.1 in test [3] (protein STAT3, HeLa); 1.08 in test [4] (HeLa, protein STT3A); 1.03 in test [5] (captured protein NCBP1, HeLa); 1.07 in test [6] (HeLa, protein LPCAT1).
